# In patent publication US5006515A, “Pharmaceuticals, phosphorus-containing 2-isoxazolines and isoxazoles contained therein” (Hoechst Aktiengesellschaft, priority 1987, dated 1991):
# Assays:
# [1] = tested on: antibodies against tetanus toxoid; assay: Antibody response of the mouse to tetanus toxoid (ELISA); type: in vivo, female NMRI mice; conditions: 20-day value
# Method: (§1) Groups each containing 5 female NMRI mice with a body weight of 18 to 20 g were formed, and each of the animals received either intravenous administration of 10^8 heat-killed E coli bacteria or 300 Lf (limes of flocculation) of tetanus toxoid. Oral administration of the test substance in physiological saline (PBS) in doses of 5, 10, 20, 40 or 80 mg/kg, or of the pure vehicle (control groups), was carried out at the same time as administration of the antigen. After 10 and 20 days, blood was taken from the retroorbital venous plexus of the mice and, in the sera obtained therefrom, the IgG and IgM antibodies against E. coli organisms and tetanus toxoid were determined with the aid of the ELISA technique known to those skilled in the art, using homologous lipopolysaccharide from E. coli and tetanus toxoid, respectively, as antigen. The magnitude of the extinctions measured in the photometer is a measure of the amount of antibodies formed.
# [2] = tested on: antibodies against E. coli organisms; assay: Antibody response of the mouse to dead E. coli organisms (ELISA); type: in vivo, female NMRI mice; conditions: for Antibody response to dead E. coli organisms, IgM: 10-day value; for Antibody response to dead E. coli organisms, IgG: 20-day value
# Method: as §1
# [3] = tested on: Listeria monocytogenes; assay: Mortality and organ colonization in mice infected with Listeria monocytogenes; type: in vivo, female NMRI mice; conditions: 4 × 10 mg/kg i.p.
# Excerpt: Female NMRI mice (10 animals/group) were infected with a low dose of Listeria monocytogenes (2×10^2).
# [4] = tested on: peritoneal macrophages; assay: Activation of peritoneal macrophages: chemiluminescence (oxidative metabolism); conditions: for Chemiluminescence: single dose
# [5] = molecular target: leucine aminopeptidase; assay: Inhibition of leucine aminopeptidase; type: biochemical; conditions: substrate L-leucine 4-nitroanilide
# Method: The activity of the enzyme aminopeptidase B was determined photometrically using the substrate L-lysine 2-naphthylamide at room temperature. […] In the same way, the inhibition of leucine aminopeptidase was investigated using L-leucine 4-nitroanilide as enzyme substrate. The IC50 values are compiled in Table 6.
# [6] = tested on: Listeria monocytogenes; assay: DTH reaction in mice infected with Listeria monocytogenes; type: in vivo, female NMRI mice
# Method: In this experiment, the specific, cell-mediated immunity against the bacterium Listeria monocytogenes was investigated by means of the DTH reaction Female NMRI mice were infected with 2×10^2 live bacteria and then divided into groups each containing 10 animals. The treatment of the animals by intraperitoneal administration of the product in doses of 0.1, 1 or 10 mg/kg was started the same day. This treatment was repeated after 2, 4 and 6 days. Infected animals in a fourth experimental group, which received merely the pure vehicle i.p. in place of the product, acted as positive control. On day 13 of the experiment the DTH reaction was induced by injection of a soluble antigen obtained from Listeria monocytogenes into the footpad. 10 uninfected animals in a 5th experimental group (negative control) were likewise treated with the antigen in order to rule out non-specific reactions to the antigen challenge 24 hours after the administration of antigen, the percentage increase in the paw volume was determined as a measure of the induced DTH reaction.
# The same experimental system was also used to examine the effect of the test substance on i.p. administration of 10 mg/kg on the DTH reaction of female NMRI mice after infection with differing amounts of the bacterium Listeria monocytogenes. The animals received either 2×10^2 or 5×10^2 organisms. According to this, although the DTH reaction is increased by the test substance at both organism concentrations, this stimulation is distinctly more pronounced in the animal group infected with the lower number of organisms.
# [7] = tested on: Salmonella typhimurium; assay: Chronic Salmonella typhimurium infection in the mouse; type: in vivo, female NMRI mice; conditions: 10 × 5 mg/kg i.p.; day 22
# Method: Female NMRI mice (20 animals/group) were infected by intravenous administration of 5×10^3 Salmonella typhimurium organisms. The animals subsequently developed a chronic infection which was characterized by persistent bacterial colonization of the organs, such as the liver and the spleen, with necrosis. The test substance was administered intraperitoneally in a dose of 5 mg/kg at intervals of two days from day 3 to day 21 after infection. The animals in a control group received only the vehicle. On day 22 after the infection, the mortality in both experimental groups was determined, and the organs of the animals which survived were examined for organisms and necrosis.
smiles,measurement,setting,value
"O=P(O)(O)C1CC(c2ccccc2)=NO1 (racemic) [Example 34, 3-Phenyl-2-isoxazolin-5-ylphosphonic acid]","Antibody response to tetanus toxoid, IgG",[1]; 5 mg/kg 1 × p.o.,865 ± 182 mE492nm
same,"Antibody response to tetanus toxoid, IgG",[1]; 10 mg/kg 1 × p.o.,1213 ± 255 mE492nm
same,"Antibody response to tetanus toxoid, IgG",[1]; 20 mg/kg 1 × p.o.,1852 ± 261 mE492nm
same,"Antibody response to tetanus toxoid, IgG",[1]; 40 mg/kg 1 × p.o.,1357 ± 348 mE492nm
same,"Antibody response to tetanus toxoid, IgG",[1]; 80 mg/kg 1 × p.o.,1154 ± 232 mE492nm
same,"Antibody response to dead E. coli organisms, IgM",[2]; 5 mg/kg 1 × p.o.,1217 ± 264 mE492nm
same,"Antibody response to dead E. coli organisms, IgG",[2]; 5 mg/kg 1 × p.o.,1377 ± 324 mE492nm
same,"Antibody response to dead E. coli organisms, IgM",[2]; 10 mg/kg 1 × p.o.,1411 ± 179 mE492nm
same,"Antibody response to dead E. coli organisms, IgG",[2]; 10 mg/kg 1 × p.o.,1663 ± 191 mE492nm
same,"Antibody response to dead E. coli organisms, IgM",[2]; 20 mg/kg 1 × p.o.,1657 ± 231 mE492nm
same,"Antibody response to dead E. coli organisms, IgG",[2]; 20 mg/kg 1 × p.o.,1951 ± 468 mE492nm
same,"Antibody response to dead E. coli organisms, IgM",[2]; 40 mg/kg 1 × p.o.,1523 ± 288 mE492nm
same,"Antibody response to dead E. coli organisms, IgG",[2]; 40 mg/kg 1 × p.o.,2434 ± 312 mE492nm
same,"Antibody response to dead E. coli organisms, IgM",[2]; 80 mg/kg 1 × p.o.,1459 ± 208 mE492nm
same,"Antibody response to dead E. coli organisms, IgG",[2]; 80 mg/kg 1 × p.o.,2217 ± 273 mE492nm
same,survival of the second infection,[3],survived the second infection
same,% of surviving animals with organisms in the liver,[3]; 5 days after second infection,20%
same,Mortality after secondary infection,[3]; second infection 10^6 organisms,0/10
same,Chemiluminescence,[4]; 5 mg/kg i.p.,842 ± 42 RLU/15 min × 10^3
same,Chemiluminescence,[4]; 5 mg/kg p.o.,728 ± 101 RLU/15 min × 10^3
same,Chemiluminescence,[4]; 10 mg/kg i.p.,2842 ± 223 RLU/15 min × 10^3
same,Chemiluminescence,[4]; 10 mg/kg p.o.,2140 ± 156 RLU/15 min × 10^3
same,Chemiluminescence,[4]; 20 mg/kg i.p.,4935 ± 516 RLU/15 min × 10^3
same,Chemiluminescence,[4]; 20 mg/kg p.o.,3286 ± 283 RLU/15 min × 10^3
same,Chemiluminescence,[4]; 40 mg/kg i.p.,6990 ± 290 RLU/15 min × 10^3
same,Chemiluminescence,[4]; 40 mg/kg p.o.,4405 ± 197 RLU/15 min × 10^3
same,"chemiluminescence, in words",[4]; i.p. and p.o.,pronounced dose-dependent increase in chemiluminescence
same,Leucine aminopeptidase IC50,[5],24 μug/ml
same,DTH reaction % increase in the paw volume,"[6]; 2×10^2 bacteria, 0.1 mg/kg 4 × i.p.",13.3 ± 9.7%
same,DTH reaction % increase in the paw volume,"[6]; 2×10^2 bacteria, 1.0 mg/kg 4 × i.p.",15.0 ± 7.0%
same,DTH reaction % increase in the paw volume,"[6]; 2×10^2 bacteria, 10.0 mg/kg 4 × i.p., p <0.05 (Student's t test)",19.2 ± 9.4%
same,DTH reaction % increase in the paw volume,"[6]; Table 13 experiment: 2 × 10^2 organisms, 4 × 10 mg/kg i.p.",30.9 ± 15.3%
same,DTH reaction % increase in the paw volume,"[6]; Table 13 experiment: 5 × 10^2 organisms, 4 × 10 mg/kg i.p.",17.9 ± 12.1%
same,% of surviving animals with liver necroses,[7],58%
same,% of surviving animals with organism-positive livers,[7],67%
same,% of surviving animals with severe liver necroses,[7],42%
same,% of surviving animals with spleen necroses,[7],0%
same,Mortality,[7],8/20
